Reference: PMC11487905, “Dalbavancin-resistant Staphylococcus epidermidis in vivo selection following a prosthetic joint infection: phenotypic and genomic characterization” (JAC-Antimicrobial Resistance, 2024)
≈ marks a conversion by molar mass, not a printed value.

Assays:
[1] = system: linezolid-resistant MDR S. epidermidis (LR-MDRSE) isolates; assay: microbe, parasite or virus in culture; assay type: cell-based, Staphylococcus epidermidis; details: for Increase of MIC between isolates: STA1 (Day 24) to STA3 (Day 240)
Procedure: Isolates were identified by MALDI-TOF mass spectrometry (VITEK MS, bioMérieux, Marcy-l’Étoile, France). Antibiotic susceptibility testing was performed using the AST-P668 bioMérieux card using a VITEK XL automated system (bioMérieux). Dalbavancin, ceftaroline, delafloxacin, tigecycline and daptomycin MICs were determined using a 0.5 McFarland bacterial inoculum on Mueller–Hinton agar plates with gradient strips (Liofilchem, Roseto degli Abruzzi, Italy) incubated for 24 h at 35°C. Interpretation of the susceptibility was made according to the EUCAST 2022 criteria.

LR-MDRSE PJI = assay type: in vivo, patient
Procedure: A person underwent a revision of a medial unicompartmental knee arthroplasty to total knee arthroplasty (TKA) for progressive arthritis of the lateral joint.
It was subsequently decided to perform debridement, antibiotics and implant retention (DAIR) with a change of modular implants. […] A treatment shift to dalbavancin 1500 mg IV on Days 35, 49, 71 and 106, combined with doxycycline 200 mg/day for 3 months was initiated.
The evolution was considered unfavourable due to a loco-regional inflammatory syndrome with persistent chronic pain.
A revision of the knee was decided upon, with five bacteriological samples collected. As previously, they tested positive with the same LR-MDRSE strain (Day 371). Ceftaroline (1800 mg/day) and doxycycline (200 mg/day) combination treatment was administered for the next 12 weeks. […] His C-reactive protein level was <4 mg/L (reference range: <4 mg/L). However, suppressive doxycycline therapy was maintained (200 mg/day).

[2] = cited from earlier work
Procedure: Dalbavancin has a similar mechanism of action and spectrum as vancomycin but with increased potency, higher protein binding and an elimination half-life up to 60 times longer.[10] […] N ... || Because of the long-term duration, dalbavancin therapeutic drug monitoring was performed. Plasma trough concentrations were measured using a validated LC coupled with MS method (Acquity UPLC® BEH C18 and Acquity QDA, Waters, France). […] We therefo ... || Moreover, the clinical infections caused by biofilms poses a serious threat to public health. Staphylococcus spp. biofilms stand out as one of the most prevalent, especially in osteoarticular infection and PJI. […] Thus, new therapeutic strategies targeting biofilms and MDR bacteria are urgently needed.

S. aureus = details: seven isolates of S. aureus (including four vancomycin-intermediate strains); ref 14 (Lepak et al.); cited from earlier work
Description: fAUC0–24/MIC best correlates with in vivo efficacy of dalbavancin.[13]

[3] = Dalbavancin therapeutic drug monitoring: plasma trough concentration and extrapolated fAUC0–24/MIC; assay type: in vivo, patient; details: for Plasma trough concentration: 1500 mg IV, LC-MS
Description: We therefore used this methodology for fAUC0–24 determination.

[4] = Staphylococcus epidermidis, 576 h
[5] = after four injections of dalbavancin 1500 mg IV
[6] = ceftaroline 1800 mg/day combined with doxycycline 200 mg/day for 12 weeks after knee revision
[7] = Staphylococcus epidermidis, isolate STA1, Day 24, gradient strip, 0.5 McFarland, Mueller–Hinton agar, 24 h at 35°C
[8] = Staphylococcus epidermidis, isolate STA3, Day 240, gradient strip, 0.5 McFarland, Mueller–Hinton agar, 24 h at 35°C

SMILES: CCC[C@@H]1C[C@@H](C(=O)N[C@@H]([C@H]2O[C@H](SC)[C@H](O)[C@@H](O)[C@H]2O)[C@@H](C)O)N(C)C1 [Lincomycin]
- MIC ([1]; Staphylococcus epidermidis): > 8 µg/mL
- MIC [1, 4]: > 8 µg/mL

SMILES: CC1COc2c(N3CCN(C)CC3)c(F)cc3c(=O)c(C(=O)O)cn1c23 (centres unmarked) [Ofloxacin]
- MIC ([1]; Staphylococcus epidermidis): > 4 µg/mL
- MIC [1, 4]: > 4 µg/mL

SMILES: CCCCCCCCCC(=O)N[C@@H](Cc1c[nH]c2ccccc12)C(=O)N[C@H](CC(N)=O)C(=O)N[C@@H](CC(=O)O)C(=O)N[C@@H]1C(=O)NCC(=O)N[C@@H](CCCN)C(=O)N[C@@H](CC(=O)O)C(=O)N[C@H](C)C(=O)N[C@@H](CC(=O)O)C(=O)NCC(=O)N[C@H](CO)C(=O)N[C@@H]([C@H](C)CC(=O)O)C(=O)N[C@@H](CC(=O)c2ccccc2N)C(=O)O[C@@H]1C [Daptomycin]
- Increase of MIC between isolates [1, 5]: 6 fold

SMILES: CC(=O)NC[C@H]1CN(c2ccc(N3CCOCC3)c(F)c2)C(=O)O1 [Linezolid]
- Susceptibility of the strain (in words) ([1]; STA1, Day 24): resistant
- MIC ([1]; Staphylococcus epidermidis): > 4 µg/mL
- MIC [1, 4]: > 4 µg/mL

SMILES: CCO/N=C(\C(=O)N[C@@H]1C(=O)N2C(C(=O)[O-])=C(Sc3nc(-c4cc[n+](C)cc4)cs3)CS[C@H]12)c1nsc(N)n1 [Ceftaroline]
- Clinical evolution under treatment (LR-MDRSE PJI; [6]): favourable
- Tolerability of treatment (LR-MDRSE PJI; [6]): well tolerated
- Susceptibility of the strain (in words) ([1]; STA1, Day 24): susceptible
- Susceptibility of the strain (in words) ([1]; STA3, Day 240): susceptible
- MIC [1, 7]: 1 µg/mL (≈ 1.65 µM)
- MIC [1, 8]: 0.75 µg/mL (≈ 1.24 µM)

SMILES: NC[C@H]1O[C@H](O[C@H]2[C@H](O)[C@@H](O[C@H]3O[C@H](CO)[C@@H](O)[C@H](N)[C@H]3O)[C@H](N)C[C@@H]2N)[C@H](N)C[C@@H]1O [Tobramycin]
- MIC ([1]; Staphylococcus epidermidis): > 8 µg/mL
- MIC [1, 4]: > 8 µg/mL

SMILES: Cc1onc(-c2ccccc2)c1C(=O)N[C@@H]1C(=O)N2[C@@H]1SC(C)(C)[C@@H]2C(=O)O [Oxacillin]
- MIC ([1]; Staphylococcus epidermidis): > 2 µg/mL
- MIC [1, 4]: > 2 µg/mL

SMILES: CNC(C)C1CCC(N)C(OC2C(N)CC(N)C(OC3OCC(C)(O)C(NC)C3O)C2O)O1 (centres unmarked) [Gentamicin]
- MIC ([1]; Staphylococcus epidermidis): > 8 µg/mL
- MIC [1, 4]: > 8 µg/mL

SMILES: Nc1nc(-n2cc(C(=O)O)c(=O)c3cc(F)c(N4CC(O)C4)c(Cl)c32)c(F)cc1F [Delafloxacin]
- MIC [1, 7]: 1 µg/mL (≈ 2.27 µM)
- MIC [1, 8]: 8 µg/mL (≈ 18.2 µM)

SMILES: CN[C@H](CC(C)C)C(=O)N[C@H]1C(=O)N[C@@H](CC(N)=O)C(=O)N[C@H]2C(=O)N[C@H]3C(=O)N[C@H](C(=O)N[C@H](C(=O)O)c4cc(O)cc(O)c4-c4cc3ccc4O)[C@H](O)c3ccc(c(Cl)c3)Oc3cc2cc(c3O[C@@H]2O[C@H](CO)[C@@H](O)[C@H](O)[C@H]2O[C@H]2C[C@](C)(N)[C@H](O)[C@H](C)O2)Oc2ccc(cc2Cl)[C@H]1O [Vancomycin]
- Increase of MIC between isolates [1]: > 5 fold

SMILES: COc1cccc(OC)c1C(=O)N[C@@H]1C(=O)N2[C@@H]1SC(C)(C)[C@@H]2C(=O)O [methicillin]
- Susceptibility of the strain (in words) ([1]; STA1, Day 24): resistant

SMILES: CC[C@H]1OC(=O)[C@H](C)[C@@H](O[C@H]2C[C@@](C)(OC)[C@@H](O)[C@H](C)O2)[C@H](C)[C@@H](O[C@@H]2O[C@H](C)C[C@H](N(C)C)[C@H]2O)[C@](C)(O)C[C@@H](C)C(=O)[C@H](C)[C@@H](O)[C@]1(C)O [Erythromycin]
- MIC ([1]; Staphylococcus epidermidis): > 4 µg/mL
- MIC [1, 4]: > 4 µg/mL

SMILES: CN(C)c1cc(NC(=O)CNC(C)(C)C)c(O)c2c1C[C@H]1C[C@H]3[C@H](N(C)C)C(O)=C(C(N)=O)C(=O)[C@@]3(O)C(O)=C1C2=O [Tigecycline]
- MIC [1, 7]: 0.19 µg/mL (≈ 0.324 µM)
- MIC [1, 8]: 0.25 µg/mL (≈ 0.427 µM)

SMILES: CC(=O)O[C@H]1C[C@@]2(C)[C@@H](C[C@@H](O)[C@H]3[C@@]4(C)CC[C@@H](O)[C@@H](C)[C@@H]4CC[C@@]32C)/C1=C(\CCC=C(C)C)C(=O)O [Fusidic acid]
- MIC ([1]; Staphylococcus epidermidis): > 4 µg/mL
- MIC [1, 4]: > 4 µg/mL

SMILES: C[C@@H]1O[C@@H]1P(=O)(O)O [Fosfomycin]
- MIC ([1]; Staphylococcus epidermidis): > 64 µg/mL
- MIC [1, 4]: > 64 µg/mL

SMILES: CO[C@H]1/C=C/O[C@@]2(C)Oc3c(C)c(O)c4c(O)c(c(/C=N/N5CCN(C)CC5)c(O)c4c3C2=O)NC(=O)/C(C)=C\C=C\[C@H](C)[C@H](O)[C@@H](C)[C@@H](O)[C@@H](C)[C@H](OC(C)=O)[C@@H]1C [Rifampin]
- Susceptibility of the strain (in words) ([1]; STA1, Day 24): resistant
- MIC ([1]; Staphylococcus epidermidis): > 2 µg/mL
- MIC [1, 4]: > 2 µg/mL

SMILES: CN[C@H]1C(=O)N[C@@H]2Cc3ccc(cc3)Oc3cc4cc(c3O[C@@H]3O[C@H](C(=O)O)[C@@H](O)[C@H](O)[C@H]3NC(=O)CCCCCCCCC(C)C)Oc3ccc(cc3Cl)[C@@H](O)[C@@H]3NC(=O)[C@H](NC(=O)[C@@H]4NC(=O)[C@@H](NC2=O)c2cc(cc(O)c2Cl)Oc2cc1ccc2O)c1ccc(O)c(c1)-c1c(O[C@H]2O[C@H](CO)[C@@H](O)[C@H](O)[C@@H]2O)cc(O)cc1[C@@H](C(=O)NCCCN(C)C)NC3=O [Dalbavancin]
- Clinical outcome of treatment (LR-MDRSE PJI; dalbavancin 1500 mg IV on Days 35, 49, 71 and 106, combined with doxycycline 200 mg/day for 3 months, after DAIR): treatment failure
- Elimination half-life relative to vancomycin [2]: up to 60 times longer
- Bound to plasma proteins ([2]; plasma): 93%
- Half-life ([2]; prolonged half-life): about 14 days
- fAUC0–24/MIC value for 1-log kill (S. aureus): 53.3
- fAUC0–24/MIC value for 2-log kill (S. aureus): 111.1
- fAUC0–24/MIC value for net stasis (S. aureus): 27.1
- Plasma trough concentration ([3]; Day 49, 14 days after the last dose): 18 mg/L
- Calculated fAUC0–24/MIC ratio ([3]; Day 49, assuming an MIC of 0.032 mg/L, extrapolated from single trough, 93% protein bound): 945
- Calculated fAUC0–24/MIC ratio ([3]; Day 49, assuming an MIC of 0.5 mg/L): 60
- Plasma trough concentration ([3]; Day 71, 22 days after the last dose): 23.6 mg/L
- Calculated fAUC0–24/MIC ratio ([3]; Day 71, assuming an MIC of 0.032 mg/L): 1239
- Calculated fAUC0–24/MIC ratio ([3]; Day 71, assuming an MIC of 0.5 mg/L): 79
- Plasma trough concentration ([3]; Day 106, 35 days after the last dose): 14.6 mg/L
- Calculated fAUC0–24/MIC ratio ([3]; Day 106, assuming an MIC of 0.032 mg/L): 766.5
- Calculated fAUC0–24/MIC ratio ([3]; Day 106, assuming an MIC of 0.5 mg/L): 49
- Increase of MIC between isolates [1, 5]: 4 fold
- Susceptibility of the strain (in words) ([1]; STA1, Day 24): susceptible
- Susceptibility of the strain (in words) ([1]; STA3, Day 240): resistant
- MIC ([1]; isolate STA1, Day 24, gradient strip, 0.5 McFarland, Mueller–Hinton agar, 24 h at 35°C): 0.032 µg/mL (≈ 0.0176 µM)
- MIC ([1]; isolate STA3, Day 240, gradient strip, 0.5 McFarland, Mueller–Hinton agar, 24 h at 35°C): 0.5 µg/mL (≈ 0.275 µM)
